{"source": "patent US4839374A", "about": "“4-((Bicyclic heterocyclyl)-methyl and -hetero)-piperidines” (Janssen Pharmaceutica, N.V., priority 1987, dated 1989)", "key": {"[1]": {"test_system": "compound 48/80-induced lethality", "assay": "Protection of rats from compound 48/80-induced lethality", "format": "in vivo, rats of an inbred Wistar strain", "conditions": "Rattus norvegicus, 4 h, read-out: Compound 48/80 lethality test in rats ED50, s.c. or p.o. 1 h before compound 48/80 0.5 mg/kg i.v.; protection of 50% of animals, survival after 4 hours", "procedure,_shortened": "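Male inbred Wistar rats (240-260 g), starved overnight, dosed subcutaneously or orally with compound or 0.9% NaCl before compound 48/80 challenge. Survival at 4 hours counted as protection. ED50 in mg/kg is the dose protecting 50% of animals from lethality.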"}, "effects of serotonin": {"test_system": "effects of serotonin", "assay": "Antagonistic activity on the effects of serotonin in the gastric lesion test (lesions induced by compound 48/80)", "format": "in vivo, rats of a Wistar inbred strain", "conditions": "for ED50: Rattus norvegicus, po, read-out: gastric lesion test ED50", "method": "Antagonistic activity on the effects of serotonin in the gastric lesion test.\nThe shock, followed by dead, can be avoided if the rats are pretreated with a classical H 1 antagonist.\nMale rats of a Wistar inbred strain, weighing 220-250 g, were starved overnight, water being available ad libitum. The test compounds were administered orally as a solution or as a suspension in aqueous medium. A control rat and a \"blank\" rat received the test compound. One hour later 5-[4-(diphenylmethyl)1-piperazinylmethyl]-1-methyl-1H-benzimidazole-2-methanol was administered subcutaneously to all rats at the dose of 2.5 mg/kg. […] Four hours after the intravenous injection of compound 48/80, the rats were decapitated and the stomachs were removed. Subsequently the stomachs were inspected for distension and contents (blood, fluid, food) and thoroughly rinsed. The macroscopic lesions were scored from 0 to +++, 0 corresponding to complete absence of visible lesions and the highest score corresponding to reddish rough patches covering more than half the glandular area.\nThe second column of tables 1-4 show for a number of compounds of formula (I) the doses (in mg/kg body weight) at which the distension of the stomach as well as the lesions in the glandular area of the stomach are completely absent in 50% of the test rats (ED50 -value)."}, "[2]": {"conditions": "compound 48/80 1 mg/kg i.v., distension and lesions of stomach completely absent in 50% of rats"}}, "note": "Like-named read-outs stand apart in the source and are kept apart here.", "data": [{"molecule": "Fc1ccc(Cn2c(CC3CCN(C4CCCCC4)CC3)nc3ccccc32)cc1", "note": "[Compound 99]", "values": [{"measurement": "ED50", "setting": "[1]", "result": 0.04, "unit": "mg/kg"}, {"measurement": "ED50", "setting": "effects of serotonin; [2]", "result": 0.31, "unit": "mg/kg"}]}, {"molecule": "COc1ccc(CCN2CCC(Cc3nc4ccccc4n3Cc3ccsc3)CC2)cc1", "note": "[Compound 523, 2-[[1-[2-(4-methoxyphenyl)ethyl]-4-piperidinyl]methyl]-1-(3-thienylmethyl)-1H-benzimidazole]", "values": [{"measurement": "ED50", "setting": "[1]", "result": 0.04, "unit": "mg/kg"}, {"measurement": "ED50", "setting": "effects of serotonin; [2]", "result": 0.31, "unit": "mg/kg"}]}, {"molecule": "Fc1ccc(Cn2c(CC3CCN(CCn4c(S)nc5cncnc54)CC3)nc3ccccc32)cc1", "note": "[Compound 495, 9-[2-[4-[[1-[(4-fluorophenyl)methyl]-1H-benzimidazol-2-yl]methyl]-1-piperidinyl]ethyl]-9H-purine-8-thiol]", "values": [{"measurement": "ED50", "setting": "[1]", "result": 0.04, "unit": "mg/kg"}, {"measurement": "ED50", "setting": "effects of serotonin; [2]", "result": 0.16, "unit": "mg/kg"}]}, {"molecule": "Oc1ccc(CCN2CCC(Cc3nc4ccc(O)cc4n3Cc3ccc(F)cc3)CC2)cc1", "note": "[Compound 505, 1-[(4-fluorophenyl)methyl]-2-[[1-[2-(4-hydroxyphenyl)ethyl]-4-piperidinyl]-methyl]-1H-benzimidazol-6-ol]", "values": [{"measurement": "ED50", "setting": "[1]", "result": 0.04, "unit": "mg/kg"}, {"measurement": "ED50", "setting": "effects of serotonin", "result": 0.04, "unit": "mg/kg"}]}, {"molecule": "COc1ccc(CCN2CCC(Cc3nc4cccnc4n3Cc3cccs3)CC2)cc1", "note": "[Compound 238]", "values": [{"measurement": "ED50", "setting": "[1]", "result": 0.08, "unit": "mg/kg"}, {"measurement": "ED50", "setting": "effects of serotonin; [2]", "result": 0.63, "unit": "mg/kg"}]}, {"molecule": "CN(CCN1CCC(Cc2nc3ccccc3n2Cc2ccc(F)cc2)CC1)c1ncccn1", "note": "[Compound 514, N-[2-[4-[[1-[(4-fluorophenyl)methyl]-1H-benzimidazol-2-yl]methyl]-1-piperidinyl]ethyl]-N-methyl-2-pyrimidinamine]", "values": [{"measurement": "ED50", "setting": "[1]", "result": 0.02, "unit": "mg/kg"}, {"measurement": "ED50", "setting": "effects of serotonin; [2]", "result": 0.63, "unit": "mg/kg"}]}, {"molecule": "O=C(c1ccccc1)N(CCN1CCC(Cc2nc3ccccc3n2Cc2ccc(F)cc2)CC1)c1ncccn1", "note": "[Compound 508, N-[2-[4-[[1-[(4-fluorophenyl)methyl]-1H-benzimidazol-2-yl]methyl]-1-piperidinyl]ethyl]-N-(2-pyrimidinyl)benzamide]", "values": [{"measurement": "ED50", "setting": "[1]", "result": 0.08, "unit": "mg/kg"}, {"measurement": "ED50", "setting": "effects of serotonin; [2]", "result": 0.16, "unit": "mg/kg"}]}, {"molecule": "c1cnc(NCCN2CCC(Cc3nc4ccccc4n3Cc3cccs3)CC2)nc1", "note": "[Compound 336]", "values": [{"measurement": "ED50", "setting": "[1]", "result": 0.01, "unit": "mg/kg"}, {"measurement": "ED50", "setting": "effects of serotonin", "result": 0.08, "unit": "mg/kg"}]}, {"molecule": "O=c1[nH]c2ccccc2c(=O)n1CCN1CCC(Cc2nc3ccccc3n2Cc2ccc(F)cc2)CC1", "note": "[Compound 209]", "values": [{"measurement": "ED50", "setting": "[1]", "result": 0.08, "unit": "mg/kg"}, {"measurement": "ED50", "setting": "effects of serotonin; [2]", "result": 0.63, "unit": "mg/kg"}]}, {"molecule": "CC(=O)CCN1CCC(Cc2nc3ccccc3n2Cc2ccc(F)cc2)CC1", "note": "[Compound 102, 4-[4-[[1-[(4-fluorophenyl)methyl]-1H-benzimidazol-2-yl]methyl]-1-piperidinyl]-2-butanone]", "values": [{"measurement": "ED50", "setting": "[1]", "result": 0.02, "unit": "mg/kg"}, {"measurement": "ED50", "setting": "effects of serotonin; [2]", "result": 0.31, "unit": "mg/kg"}]}, {"molecule": "O=C(CCCN1CCC(Cc2nc3cccnc3n2Cc2ccc(F)cc2)CC1)c1ccc(F)cc1", "note": "[Compound 127]", "values": [{"measurement": "ED50", "setting": "[1]", "result": 0.08, "unit": "mg/kg"}, {"measurement": "gastric lesion test ED50", "setting": "effects of serotonin; oral, compound 48/80 1 mg/kg i.v., distension and lesions of stomach completely absent in 50% of rats, 1 mg/kg", "result": 0.63, "unit": "mg/kg body weight"}]}, {"molecule": "Cn1cccc1C(=O)NCCN1CCC(Cc2nc3ccccc3n2Cc2ccc(F)cc2)CC1", "note": "[Compound 433, N-[2-[4-[[1-[(4-fluorophenyl)methyl]-1H-benzimidazol-2-yl]methyl]-1-piperidinyl]ethyl]-1-methyl-1H-pyrrole-2-carboxamide]", "values": [{"measurement": "ED50", "setting": "[1]", "result": 0.01, "unit": "mg/kg"}, {"measurement": "ED50", "setting": "effects of serotonin; [2]", "result": 0.16, "unit": "mg/kg"}]}, {"molecule": "Fc1ccc(Cn2c(CC3CCN(CCNc4nc5cccnc5s4)CC3)nc3ccccc32)cc1", "note": "[Compound 330, N-[2-[4-[[1-[(4-fluorophenyl)methyl]-1H-benzimidazol-2-yl]methyl]-1-piperidinyl]ethyl]thiazolo[5,4-b]pyridin-2-amine]", "values": [{"measurement": "ED50", "setting": "[1]", "result": 0.08, "unit": "mg/kg"}, {"measurement": "ED50", "setting": "effects of serotonin; [2]", "result": 0.16, "unit": "mg/kg"}]}, {"molecule": "CNC(=S)NCCN1CCC(Cc2nc3ccccc3n2Cc2ccc(F)cc2)CC1", "note": "[Compound 428, N-[2-[4-[[1-[(4-fluorophenyl)methyl]-1H-benzimidazol-2-yl]methyl]-1-piperidinyl]ethyl]-N'-methylthiourea]", "values": [{"measurement": "ED50", "setting": "[1]", "result": 0.04, "unit": "mg/kg"}, {"measurement": "ED50", "setting": "effects of serotonin; [2]", "result": 0.01, "unit": "mg/kg"}]}, {"molecule": "Fc1ccc(Cn2c(CC3CCN(Cc4ccccc4)CC3)nc3ccccc32)cc1", "note": "[Compound 34, 1-[(4-fluorophenyl)methyl]-2-[[1-(phenylmethyl)-4-piperidinyl]methyl]-1H-benzimidazole]", "values": [{"measurement": "ED50", "setting": "[1]", "result": 0.04, "unit": "mg/kg"}, {"measurement": "ED50", "setting": "effects of serotonin; [2]", "result": 0.63, "unit": "mg/kg"}]}, {"molecule": "Cc1nc2ccccn2c(=O)c1CCN1CCC(Cc2nc3cccnc3n2Cc2ccco2)CC1", "note": "[Compound 180]", "values": [{"measurement": "ED50", "setting": "[1]", "result": 0.01, "unit": "mg/kg"}, {"measurement": "ED50", "setting": "effects of serotonin; [2]", "result": 0.31, "unit": "mg/kg"}]}]}
